Experimental data taken from patent publication US20230381160A1, “PROPHYLATIC USE OF CALCIUM CHANNEL BLOCKERS IN TUBERCULOSIS” (priority 2020, published 2023).

Test system: active TB
Assay: Nested case-control study (NHIRD): drug use and risk of incident active TB
Type: in vivo, human
Conditions: incidence of active TB
From the text: National Health Insurance (NHI) program of Taiwan is a compulsory single-payer system that enrolls approximately 24 million residents with 99.8% coverage. We conducted a nested case-control study using the National Health Insurance Research Database (NHIRD) approved from the institutional review board of National Taiwan University Hospital. The NHIRD used a systematic approach to randomly select one million people from the enrollees of NHI, which represents the age, sex, and geographical region distribution of the Taiwanese population. The computerized NHIRD includes information on patient demographics, outpatient and inpatient electronic claim records, individual diagnoses by ICD-9 CM codes, operations, and prescribed medications. Detailed information regarding the name of the prescribed drugs, route of administration, quantity, and number of days of supply are also available. The study was approved by the Institutional Review Board at National Taiwan University Hospital (No. 201311043RINB). Patients' consent was waived because this is an electronic database study using anonymous subjects.
The study cohort consisted of all adult patients (≥18 years old) from the NHIRD that were followed longitudinally between January 1999 and December 2011. We used 1999 as pre-enrollment periods. TB was defined as those with any code for TB according to the ICD-9 CM codes (ICD-9 CM codes: 010-018, including all subcategories). All participants in the study cohort were followed and contributed person-time from the first day of 2000 until the earliest of the following end points: first diagnosis of active TB, termination of health insurance coverage, death, or the end of the study period, whichever came first. The year before the year of TB diagnosis was used for the evaluation of the drug exposure. […]
We assessed the covariates from the cohort entry to the year before the index date. Covariates assessed included: demographics, pre-existing chronic diseases, medications used, and proxy indicators for the lifestyle such as alcohol consumption or smoking related illness, and obesity or malnutrition. […]

COC(=O)C1=C(C)NC(C)=C(C(=O)OC)C1c1ccccc1[N+](=O)[O-] [Nifedipine, nifedipine]
IR % (case/person-years) (average daily dose 10 mg): 0% (0/694) | IR % (case/person-years) (average daily dose 20 mg): 0.34% (6/1,755) | IR % (case/person-years) (average daily dose 30 mg): 0.40% (6/1,499)
